Results on two compounds are retold here after paper PMC7796107, “Efficient Separation of Phytochemicals from Muehlenbeckia volcanica (Benth.) Endl. by Polarity-Stepwise Elution Counter-Current Chromatography and Their Antioxidant, Antiglycation, and Aldose Reductase Inhibition Potentials” (Molecules, 2021).

Structures are written as SMILES. Where two headings read alike, the source gives them in different places. Marks after values point to notes of the source that are not given here.

A short description of test [1]: DPPH radical scavenging assay. It is filed as biochemical. The conditions noted are these: Trolox equivalent antioxidant capacity. The procedure:
(§1) The antioxidant activities of the 70% methanol extract of M. volcanica and the separated compounds were evaluated using DPPH, ABTS, and ORAC assays. The results were expressed as Trolox equivalent antioxidant capacity (TEAC, µg Trolox/µg extract or µM Trolox/µM compound), which were calculated with the equations obtained from the calibration curves of Trolox standards (final concentrations) versus their DPPH and ABTS radical inhibition (%) and the net AUC value (ORAC assay).
The DPPH radical scavenging assay was carried out using an EL800 microplate reader (Bio-Tek Instruments, Winooski, VT, USA). Briefly, 180 μL of freshly prepared DPPH solution (0.32 mM in methanol) was mixed with 20 μL of sample (dissolved in methanol, extract 250 µg/mL; compounds 62.5–1000 µM) in a 96-well plate. The mixture was incubated for 20 min in the dark at 25 °C, and then, the absorbance was measured at […]. […] Results are expressed in µg Trolox equivalents/µg extract or µM Trolox equivalents/µM compound. The DPPH radical scavenging activity (%) is calculated using Equation (1):(1) %inhibition=1−Asample−Ablank1/Acontrol−Ablank2×100%, where Asample is the absorbance of DPPH solution with a sample, Ablank1 is the absorbance of the test sample without DPPH, Acontrol is the absorbance of DPPH solution without a sample, Ablank2 is the absorbance of methanol, without DPPH or a sample.
In general terms: The DPPH test is a chemical assay of radical scavenging.

Test [2] can be described thus: ABTS radical scavenging assay. It counts as biochemical. The following applies: Trolox equivalent antioxidant capacity. The procedure: as §1
The ABTS radical scavenging assay was carried out using the same EL800 microplate reader. Briefly, 0.2 mM of ABTS diammonium salt was prepared in 3.5 mM of potassium persulfate aqueous solution, and the mixture solution was then diluted 10 times using distilled water. The diluted solution was allowed to stand for 24 h in the dark at room temperature (about 25 °C) to produce ABTS radical cations (ABTS^+). For reaction, 290 μL of ABTS^+ solution was mixed with 10 μL of sample (dissolved in methanol, extract 62.5–125 µg/mL; compounds 20–250 µM) in a 96-well plate, and the mixture solution was allowed to react for 10 min at 25 °C in the dark. Then, the absorbance was measured at 750 nm. […] Results are expressed in µg Trolox equivalents/µg extract or µM Trolox equivalents/µM compound. The ABTS radical scavenging activity (%) is calculated using Equation (1) where Asample is the absorbance of ABTS^+ solution with a sample, Ablank1 is the absorbance of the test sample without ABTS^+, Acontrol is the absorbance of ABTS^+ solution without a sample, Ablank2 is the absorbance of buffer, without ABTS^+ or a sample.

Test [3] can be described thus: ORAC (oxygen radical absorbance capacity) assay. It counts as biochemical. The conditions noted are these: Trolox equivalent antioxidant capacity, ORAC assay (peroxyl radicals). The protocol: as §1
The ORAC assay was carried out using a Fluoroskan Ascent FL microplate reader (Thermo, Waltham, MA, USA) using the method described previously with minor modifications. Antioxidants can scavenge the peroxyl radicals generated by AAPH, which prevent the degradation of the fluorescein and, therefore, prevent the loss of the fluorescence of fluorescein. Briefly, fluorescein sodium salt (117 nM) and AAPH (40 mM) were freshly prepared in 0.1 M phosphate-buffered saline (PBS, pH 7.4). For reaction, 120 µL of fluorescein sodium salt (117 nM) and 20 µL of sample (dissolved in methanol, extract 10–20 µg/mL; compounds 10–160 µM) were mixed in a black 96-well plate and pre-incubated for 15 min at 37 °C. Next, 60 µL of AAPH (40 mM) was added, and the fluorescence was measured 100 times (interval 1 min) at excitation and emission wavelengths of 485 nm and 538 nm, respectively, by the microplate reader maintained at 37 °C. […] The relative ORAC values are expressed in µg Trolox equivalents/µg extract or µM Trolox equivalents/µM compound.

Test [4] has as its target T1, aldose reductase (AR) (Rattus norvegicus, UniProt P07943).
T1 construct: centrifuged at 10,000× g for 30 min at 4 °C (Centrifuge 5417R, Eppendorf, Germany) to obtain AR homogenate (in the supernatant); from tissue; host or cells: eye lenses of Sprague–Dawley rats
Kind of test: Aldose reductase (AR) inhibition assay, rat lens homogenate. It counts as biochemical, Sprague–Dawley rats. The following applies: for inhibition at 3.125 µM / inhibition at 6.25 µM / inhibition at 12.5 µM / inhibition at 25 µM: read-out: AR inhibition activity, inhibition (%). The protocol: For the extraction of AR, the rat eye lenses were grounded in a precooled mortar (−70 °C) and extracted using 0.1 M PBS (pH 6.2; about 0.5 mL of PBS per two frozen rat lenses).
A 96-well plate-based AR inhibition assay was used in this study, which was modified from a previous method. In principle, the rate of the absorbance decrease of NADPH at 340 nm (OD340 nm) was used for evaluation of the AR inhibitory activity. […] Then, as soon as 20 μL of the substrate (DL-glyceraldehyde dimer, 25 mM in 0.1 M PBS, pH 7.0) was added, the absorbance of the reaction solution at 340 nm was measured for 6 min using an Epoch microplate spectrophotometer (BioTek Instruments, Highland Park, IL, USA). […] The samples were first prepared at high concentrations in DMSO or in a mixture of DMSO and water and then diluted using water shortly before the experiment. The concentration of DMSO was kept within 0.2% (v/v) in the reaction system. […] The AR inhibition ratio (%) for the samples was calculated using Equation (4):(4) %inhibition=1−Slopes−Slopeb/Slopec−Slopeb×100%, where Slopec, Slopes, and Slopeb are the slopes obtained from the OD340 nm versus the reaction time (min) dotted lines of the control group (without sample), sample group (with enzyme and sample), and blank group (without enzyme or sample), respectively. |Slope| is the absolute value of Slope.

In test [5] the test system is streptozotocin-induced diabetic rats. The following applies: cited from earlier work.
The conditions of test [6]: cited from earlier work.
Test [7] deals with diabetic rats. The conditions noted are these: cited from earlier work.
Test [8] deals with streptozotocin-induced diabetic cats. The conditions noted are these: cited from earlier work.
The target of test [9] is fructose-mediated bovine serum albumin (BSA) glycation (Bos taurus, UniProt P02769). Put plainly: Antiglycation assay, fructose-mediated BSA glycation model. The conditions noted are these: for inhibition at 12.5 µM / inhibition at 25 µM / inhibition at 50 µM / inhibition at 100 µM: read-out: Antiglycation activity, inhibition (%).
Sequence of fructose-mediated bovine serum albumin (BSA) glycation (P02769 25-607): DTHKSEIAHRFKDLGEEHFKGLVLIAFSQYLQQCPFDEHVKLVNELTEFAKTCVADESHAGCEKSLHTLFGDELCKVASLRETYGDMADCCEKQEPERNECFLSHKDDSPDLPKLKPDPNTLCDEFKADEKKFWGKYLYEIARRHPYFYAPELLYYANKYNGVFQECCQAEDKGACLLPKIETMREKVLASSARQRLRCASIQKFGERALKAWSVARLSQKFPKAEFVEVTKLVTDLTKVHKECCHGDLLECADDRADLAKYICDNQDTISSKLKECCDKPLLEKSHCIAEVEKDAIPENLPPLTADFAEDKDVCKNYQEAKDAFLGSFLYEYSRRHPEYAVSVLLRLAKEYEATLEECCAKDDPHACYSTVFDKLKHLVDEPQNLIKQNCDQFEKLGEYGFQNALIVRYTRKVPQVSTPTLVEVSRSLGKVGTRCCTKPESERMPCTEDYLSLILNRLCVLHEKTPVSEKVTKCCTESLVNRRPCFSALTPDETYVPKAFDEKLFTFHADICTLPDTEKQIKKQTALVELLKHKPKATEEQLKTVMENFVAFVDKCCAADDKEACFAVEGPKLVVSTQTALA
Experimental: The antiglycation assay was carried out using a fructose-mediated BSA glycation model as reported previously [43] with minor modifications. […] Then, 200 µL of the reaction solution from each sample was pipetted to black 96-well plates to determine the fluorescent AGEs using a microplate fluorescence reader (BIOTEK-FLx800, Winooski, VT, USA) at excitation and emission wavelengths of 360 ± 20 nm and 460 ± 20 nm, respectively. Aminoguanidine [25], a synthetic antiglycation agent, was used as a positive control with final concentrations of 200 µg/mL to 800 µg/mL or 1 mM to 4 mM.
The subject of test [10] is human erythrocytes. Also noted: method as in earlier work. The following applies: high glucose conditions; cited from earlier work.

One may read the inhibition as how much of the control response was suppressed. Turning to `O=c1c(O)c(-c2ccc(O)c(O)c2)oc2cc(O)cc(O)c12` [Quercetin (10), quercetin], in test [1], the “TEAC, DPPH” value is 2.14 ± 0.03 ^b µM trolox/µM Compound. Besides, in test [2], the “TEAC, ABTS” value was 3.61 ± 0.03 ^a µM trolox/µM Compound. Moreover, the “TEAC, ABTS” value in test [2] (listed as quercetin) came out at 3.61 µM trolox/µM Compound. Besides, the “TEAC, ORAC” value in test [3] is reported as 6.93 ± 0.30 ^a µM trolox/µM Compound. Besides, in test [4], the inhibition at 3.125 µM worked out at 12.9 ± 2.11%, the inhibition at 6.25 µM was 26.3 ± 1.21%, the inhibition at 12.5 µM came out at 43 ± 3.02% and the inhibition at 25 µM stood at 60 ± 1.21%. For the same compound, in test [5], the “Effect on oxidative stress” value is listed as “ameliorate the oxidative stress”. The “Inhibition of AGEs by trapping methylglyoxal” value in test [6] is reported as “inhibit AGEs by trapping methylglyoxal”. Moreover, in test [7], the “Progression of lens opacification” value is recorded as “delay the progression of lens opacification”. Moreover, the Impaired cardiac function result in test [8] is given as “partially reverse the impaired cardiac function”. For the same compound, in [9], the inhibition at 12.5 µM came out at 19.4 ± 1.76%, the inhibition at 25 µM is 35.4 ± 0.92%, the inhibition at 50 µM was determined as 67.47 ± 0.24% and the inhibition at 100 µM turned out to be 84.3 ± 1.39%.

By IC50 is commonly meant the concentration that gives 50% inhibition. High values mean weaker potency, low ones greater potency. For the compound `C[C@@H]1O[C@@H](OC[C@H]2O[C@@H](Oc3c(-c4ccc(O)c(O)c4)oc4cc(O)cc(O)c4c3=O)[C@H](O)[C@@H](O)[C@@H]2O)[C@H](O)[C@H](O)[C@H]1O` [Rutin (8), rutin], in [1], the “TEAC, DPPH” value is 0.90 ± 0.09 ^e µM trolox/µM Compound. Besides, the “TEAC, ABTS” value in [2] is reported as 1.12 ± 0.04 ^d µM trolox/µM Compound. Further, in test [3], the “TEAC, ORAC” value is reported as 5.77 ± 0.08 ^b µM trolox/µM Compound. The inhibition at 3.125 µM in test [4] (3.125 µM) came to 46.4 ± 1.21%. The inhibition at 6.25 µM in [4] (6.25 µM) was 62.79 ± 0.3%. Moreover, in test [4] (12.5 µM), the inhibition at 12.5 µM worked out at 75.2 ± 0.9%. In test [4] (25 µM), the inhibition at 25 µM stood at 84.5 ± 1.51%. Besides, the IC50 in [4] (rat lens AR homogenate) was 3.51 ± 0.12 µM. The “Effect on oxidative stress” value in test [5] is reported as “ameliorate the oxidative stress”. Further, in [6], the “Inhibition of AGEs by trapping methylglyoxal” value is on record as “inhibit AGEs by trapping methylglyoxal”. Also, in test [10], the “Accumulation of sorbitol in human erythrocytes” value was “suppress the accumulation of sorbitol”. Moreover, in test [7], the “Progression of lens opacification” value is listed as “delay the progression of lens opacification”. Further, in test [8], the Impaired cardiac function result is “partially reverse the impaired cardiac function”. In [9], the IC50 amounted to 20.1 ± 0.23 µM, the inhibition at 12.5 µM is 30.8 ± 1.1%, the inhibition at 25 µM is 61.7 ± 2.49% and the inhibition at 50 µM was 81.82 ± 0.65%. In test [9], the inhibition at 100 µM amounted to 91.51 ± 0.4%.
